Source: patent publication US4183935A, “Bispidine derivatives, their preparation, and drugs containing same” (priority 1977, dated 1980)
Where a name gives a salt, the structure may show the parent alone. Read-outs that look alike come from different tables or passages of the source.

Tests used:
Assay type in all cases: in vivo, rats (Sprague Dawley)
in vivo = conditions: in vivo; rat, oral; dose at which the maximum effect is achieved; read-out: Maximum effect: Dose (maximum tolerated dose)
Protocol: (§1) To determine their anti-arrhythmic activity, the substances were administered orally to rats (Sprague Dawley, weight 200-250 g) 45 minutes before starting a thiobutabarbital narcosis (100 mg/kg administered intraperitoneally). Aconitine was used to produce arrhythmias, and was infused intravenously 60 minutes after administration of the active substance (dosage rate 0.005 mg/kg per minute). In the untreated animals, arrhythmias manifest themselves after an average of 3.32 minutes, and their occurrence can be delayed by anti-arrhythmic agents, the delay being dependent on the dose. The ED50% is the does which increases by 50% the duration of infusion up to the occurrence of arrhythmias. R.E. is the relative effect, based on quinidine.ident.1.00. The maximum effect is that achieved by administering the maximum tolerated dose. .increment.% indicates the percentage by which the duration of the aconitine infusion can be increased. R.M.E. is the relative maximum effectiveness, based on quinidine.ident.1.00. The dose producing a toxic effect indicates the amount (in mg/kg) at which the first toxic symptoms such as cyanosis or changes in ECG occur. Q is the quotient of the toxic dose and the ED50%.

[1] = tested on: arrhythmias produced by aconitine; test: animal or person; conditions: for ED50: Rattus norvegicus, po, read-out: Effective dose ED50% (dose which increases by 50% the duration of infusion up to the occurrence of arrhythmias); for R.E. (relative effect, based on quinidine = 1.00): from ED50%; for R.M.E. (relative maximum effectiveness, based on quinidine = 1.00): from maximum effect; for Maximum effect: Δ% (percentage by which the duration of the aconitine infusion can be increased): rat, oral, at the maximum tolerated dose
Protocol: as §1

[2] = toxic effect: dose at which first toxic symptoms such as cyanosis or changes in ECG occur; conditions: for Toxic effect: Dose (dose producing a toxic effect): first toxic symptoms such as cyanosis or changes in ECG; for selectivity ratio: rat, in vivo, po
Protocol: as §1

[3] = toxic dose / ED50%, read-out: Q (quotient of the toxic dose and the ED50%)

| Structure (SMILES) | MTD (in vivo) [mg/kg] | ED50 [1] [mg/kg] | R.E. (relative effect, based on quinidine = 1.00) [1] | R.M.E. (relative maximum effectiveness, based on quinidine = 1.00) [1] | Maximum effect: Δ% (percentage by which the duration of the aconitine infusion can be increased) [1] [%] | Toxic effect: Dose (dose producing a toxic effect) [2] [mg/kg] | selectivity ratio [2, 3] | selectivity ratio [2] |
| --- | --- | --- | --- | --- | --- | --- | --- | --- |
| c1ccc(CN2CC3CC(C2)CN(C(c2ccccc2)c2ccccc2)C3)cc1 [C6 H5 H H 0, N-Benzyl-N'-benzhydryl-bispidine fumarate] | 215 | 20.4 | 2.09 | 1.54 | 205 | 464 | 22.8 | – |
| Clc1ccc(CN2CC3CC(CN(Cc4ccccc4)C3)C2)cc1Cl [H Cl Cl 0, N-Benzyl-N'-(3,4-dichlorobenzyl)-bispidine fumarate] | 215 | 15.6 | 2.74 | 2.13 | 283 | 464 | 29.7 | – |
| FC(F)(F)c1cccc(CN2CC3CC(CN(Cc4ccccc4)C3)C2)c1 [H CF3 H 0, N-Benzyl-N'-(3-trifluoromethylbenzyl)-bispidine fumarate] | 100 | 25.4 | 1.68 | 1.82 | 242 | 215 | – | – |
| Fc1ccc(CN2CC3CC(CN(Cc4ccccc4)C3)C2)cc1 [H H F 0, N-Benzyl-N'-(4-fluorobenzyl)-bispidine fumarate] | 100 | 20.2 | 2.11 | 1.80 | 240 | 215 | 10.6 | – |
| Clc1cccc(CN2CC3CC(CN(Cc4ccccc4)C3)C2)c1 [H Cl H 0, N-benzyl-N'-(3-chlorobenzyl)-bispidine fumarate] | 46.4 | 16.6 | 2.57 | 0.92 | 123 | 100 | 6 | – |
| C=C[C@H]1C[N@@]2CC[C@H]1C[C@@H]2[C@@H](O)c1ccnc2ccc(OC)cc12 [Quinidine, reference compound] | 215 | 42.7 | 1.00 | 1.00 | 133 | 464 | – | 10.9 |
| c1ccc(CN2CC3CC(C2)CN(CC(c2ccccc2)c2ccccc2)C3)cc1 [C6 H5 H H 1, N-benzyl-N'-2,2-diphenylethylbispidine fumarate x H2 O] | 46.4 | 13 | 3.28 | 1.53 | 203 | 100 | 7.7 | – |
